The text below walks through data of US7767682B2, “Medicaments” (GlaxoSmithKline LLC, priority 2005, dated 2010).

“Also recorded” adds a separate entry of the source. Counter-ions that a name gives are not always drawn. Bridge positions count the residues as written; N and C are the ends. Ends that are not written are not given here. Where only a bound is given, the exact number is not on record here.

For data set [1], the system named is MDCK-C7 cells. In words: Transepithelial resistance of MDCK-C7 monolayers (indication of cellular viability). The conditions noted are these: at concentrations >10 μM; SCC response not measurable. Format: cell-based, canine. The procedure: (§1) Nucleopore filters (4.7 cm^2) containing confluent MDCK-C7 cells (10-16 days) were removed from the Transwell chambers and clamped between the halves of an Ussing chamber (World Precision Instruments, Sarasota, Fla.). Each half of the chamber contained a tapered fluid compartment with openings for voltage electrodes (close to the epithelial membrane) and current electrodes (at the opposite end of the chamber). The fluid chamber was water jacketed to maintain constant temperature (37° C.). The cells were bathed in serum-free MEM. The media were circulated in the chambers by means of a 5%CO2/O2 gas lift. The electrodes were connected to a voltage-clamp amplifier (Current Voltage Clamp; World Precision Instruments) for measurement of net ion flux as monitored under short-circuit conditions (SCC; short circuit current) [Ussing, 1951]. Transepithelial resistance was calculated by applying a 2-mV pulse across the epithelium and measuring the resultant deflection in SCC. Data from cultures were used only if they maintained a resistance >1000 W cm^2. Transepithelial resistance (an indication of cellular viability) was monitored throughout the entire duration of each electrophysiological experiment by pulsing the tissues with a 2000 μV pulse every 200 seconds. Resistance values were calculated from the resulting current deflections using Ohm's law.

For data set [2], the system named is MDCK-C7 cells. The data set is described as follows: Short-circuit current (SCC) ion transport response to ADH in MDCK-C7 monolayers in Ussing chambers. Format: cell-based, canine. The settings on record: for initial rapid transient SCC response to ADH: 18 hrs pre-incubation before ADH. The procedure: The Madin-Darby canine kidney (MDCK) cell line expresses many characteristics of the renal collecting duct. The MDCK-C7 subclone forms a high-resistance, hormone-responsive model of the principal cells, which are found in distal sections of the renal tubule. The electrophysiological technique of short-circuit current measurement has been used to examine the response to antidiuretic hormone (ADH) in the MDCK-C7 clone.
The MDCK-C7cells were grown in a 37° C. humidified incubator with a 5% CO2 and […] gas mixture. Initially the cells were grown in 75 cm^2 flasks and fed with Minimal Media with Earle's salts, non-essential amino acids and L-glutamine (MEM; Gibco/BRL, Grand Island, N.Y., USA) supplemented with 10% fetal bovine serum (Sigma), 26 mM NaHCO3 and adjusted to pH 7.0. The confluent cells were subcultured by trypsinization and the cells were seeded (5.4×10^4 cell/cm^2) onto Nucleopore polycarbonate membranes forming the bottom of Transwell chambers (Costar, Cambridge, Mass., USA). The Transwell chambers were placed in specially designed tissue culture plates to form a two compartment system in which media are added to both apical and basolateral surfaces. The media were aspirated and replaced three times per week. The cells were used between passages 73 and 96.
as §1, with “The electrodes were connected to a voltage-clamp amplifier (Current Voltage Clamp; World Precision Instruments) for measurement of net ion flux as monitored under short-circuit conditions (SCC; short circuit current) [Ussing, 1951].” left out
The cultures were placed in the Ussing chambers and incubated under short-circuited conditions until a steady baseline transport was achieved (0.5-1 h). In the experiments to characterize the ADH-induced ion transport phenomena, the cultures were pre-incubated with the inhibitors 30 minutes prior to the addition of ADH. In the experiments with GI262570X, compound was added 18 hrs. prior to the addition of ADH. ADH was added to the serosal bathing media; amiloride was added to the apical media 30 min after ADH to determine the portion of the transport due to flux through the amiloride-sensitive Na^+ channel. The concentrations of effectors used were: ADH, 0.1 IU/ml; amiloride, 30 μM; NPPB, 500 μM; verapamil, 25 μM, and GI262570X (concentration range from 1 nM -1 μM). Each experiment was performed using matched cultures grown in parallel. The data are presented as means±SE with n indicating the number of different experiments.

For the compound `Cc1oc(-c2ccccc2)nc1CCOc1ccc(C[C@H](Nc2ccccc2C(=O)c2ccccc2)C(=O)O)cc1` [GI262570X, N-(2-benzoylphenyl)-O-[2-(5-methyl-2-phenyl-4-oxazolyl)ethyl]-L -tyrosine], the “cellular resistance of the monolayers” value with MDCK-C7 cells [1] is < 500 ohm cm^2. The “effects on the other phases of the SCC response to ADH” value in the data set on MDCK-C7 cells [2] (100 nM or 1 μM, 18 hrs pre-incubation) was “no significant effects”. In addition, the “initial rapid transient SCC response to ADH” value in the data set on MDCK-C7 cells [2] (100 nM, n=4, p<0.05 vs controls) is reported as “significantly attenuated”; in the data set with MDCK-C7 cells [2] (1 μM, n=4, p<0.01 vs controls) it was “significantly attenuated”. Also, the “effect on baseline SCC” value with MDCK-C7 cells [2] (-10 to 0 minutes, before ADH, 18 hrs pre-incubation) is given as “no compound-related effect”. In the data set on MDCK-C7 cells [2] (MDCK-C7 cells, summary statement), the “CFTR-mediated anion secretion in response to ADH stimulation” value was “decreased”. Besides, in the data set on MDCK-C7 cells [2] (over the concentration range of 1 nM - 1 μM), the “initial rapid transient response to ADH” value is reported as “inhibited”.
Regarding `O=C(O)c1cc([N+](=O)[O-])ccc1NCCCc1ccccc1` [NPPB, reference compound], in the data set with MDCK-C7 cells [2] (500 μM, added to apical bathing medium, 30 minutes before ADH), the “rapid transient ion transport response to ADH” value was “significantly diminish”.
For the compound `N=C(N)NC(=O)c1nc(Cl)c(N)nc1N` [amiloride, amiloride hydrochloride, reference compound], in the data set on MDCK-C7 cells [2] (amiloride 30 μM, apical media, hydrochloride), the “later sustained SCC (ion transport) response to ADH” value is recorded as “only blocks the later sustained SCC response; also recorded: decrease”.
Consider “[arg]-vasopressin (CYFQNCPRG-NH2; disulfide 1-6; UniProt P01185 20-28, looked up) [ADH, antidiuretic hormone used to stimulate ion transport, reference compound]”, for which, in the data set on MDCK-C7 cells [2] (100 mU/ml, serosal bathing media, multiphasic response), the “short circuit current response on stimulation” value was “rapid increase in short circuit current”.
